According to patent publication US7498406B2, “Substantially cell membrane impermeable compound and use thereof” (priority 1999, dated 2009):

Legend:
Human bone marrow cells = assay: 12 day human bone marrow culture assay, granulocyte/macrophage colonies; assay type: cell-based; settings: 12 days, 0 to 100 μM
Protocol: FIG. 20. Effect of GSAO on proliferation of bone marrow progenitor cells. Human bone marrow cells were incubated in semi-solid agar containing 20% BGS, 1 ng per mL IL-3 and 0 to 100 μM GSAA or GSAO for 12 days. Granulocyte/macrophage colonies of 40 or more cells were counted under an inverted microscope. The data points and errors represent the mean and SE of quadruplicate cultures.
GSAO reduced the number of granulocyte/macrophage colonies in a 12 day human bone marrow culture assay with an IC50 of ˜30 μM (FIG. 20). […] Human bone marrow cells (˜5×10^5 cells per mL) were added to semi-solid agar in DMEM containing 20% BCS, […] IL-3 and 0 to 100 μM GSAA or GSAO. The cultures were incubated for 12 days at 37° C. and 5% CO2 and clusters of 40 or more cells were counted under an inverted microscope according to Metcalf (1977).

BxPc3 = assay: Viability of cultured cells, 72 hr; assay type: cell-based, human; settings: 5% FCS, 0 to 1 mM
Protocol: (§1) FIG. 19. Effect of GSAO on proliferation of non-endothelial cells. 15,000 BxPC-3 (part A), HT1080 (part B), 3T3 (part C) or BVSM (part D) cells per well were seeded into gelatinised 24-well culture plates and allowed to attach for 24 hr. The media was then replaced with DMEM containing 0 to 1 mM GSAO or GSAA and either 5% BCS (part D) or 5% FCS (parts A, B and C). Cells were cultured for 72 hr and then dispersed and counted. The dotted lines indicate the cell number in control wells containing DMEM and 2% BCS (part D) or 2% FCS (parts A, B and C) which represented no to limited proliferation. The data points and errors represent the mean and range of duplicate wells.
(§2) BCE (Folkman et al. 1979), BAE, BxPC-3 (ATCC, Bethesda, Md.), HT1080 (Jiang et al., 1999), 3T3 (ATCC, Bethesda, Md.) and BVSM (Hogg et al., 1997) cells were harvested and cultured as indicated. […] Cells were cultured for 0 to 72 hr in 10% CO2 at 37° C. then dispersed in trypsin/EDTA (GibcoBRL, Granc Island, N.Y.), resuspended in Coulter balanced electrolyte solution and counted with a Z1 Coulter counter (Coulter Corp., Miami, Fla.) in all experiments there were two control wells containing DMEM with 1% GPS and either 5% BCS for BCE cells, 2% BCS for BAE and BVSM cells, or 2% FCS for BxPC-3, HT1080 and 3T3 cells. […]

HT1080 = assay: Viability of cultured cells, 72 hr; assay type: cell-based, human; settings: 5% FCS, 0 to 1 mM
Protocol: as §1, §2

Thioredoxin = molecular target: T1, Thioredoxin (Homo sapiens, UniProt P10599); assay: Inhibition of thioredoxin-mediated reduction of 70 kDa fibronectin fragment; assay type: biochemical; settings: 10 μM GSAO, 1 μM thioredoxin, 10 minutes
T1 construct: purchased American Diagnostica, Greenwich, Conn; host or cells: E. coli
Protocol: FIG. 13. Inhibition of thioredoxin by GSAO. Thioredoxin (1 μM) was incubated with GSAO (0, 1 or 10 μM) for 10 minutes at room temperature in 20 mM Hepes, 0.14 M NaCl, pH 7.4 buffer. The 70 kDa fibronectin fragment (10 μg per mL) was added and incubated for 5 minutes at room temperature. The reactions were labelled with MPB (100 μM) for 10 minutes at 37° C. The MPB was quenched with GSH (200 μM) for 10 minutes at 37° C. followed by iodoacetamide (400 μM) for 10 minutes at room temperature. The MPB-labelled 70 kDa fragment was resolved on 5-15% SDS-PAGE, transferred to PVDF membrane and the MPB detected by blotting with streptavidin peroxidase. The positions of Mr markers are shown at left.
It was observed that thioredoxin reduced one or more protein disulfide bonds in the 70 kDa N-terminal fragment of fibronectin.

[1] = Stability of the trivalent arsenicals towards oxidation; assay type: physicochemical; settings: slowed by removal of O2, lower pH or glycine
From the text: This oxidation can be slowed in three ways; removal of dissolved O2 from solutions containing the arsenoxides, lowering the pH of these solutions, or by addition of glycine to the solutions. Glycine is routinely used to prevent oxidation of the stock solutions of the trivalent organoarsenicals. Similar to the reaction between 2,3-dimercaptopropanol and R—As(OH)2 in which a 5-membered dithioarsonite (XI) is formed, reaction of glycine with R—As(OH)2 is thought to give a 5-membered cyclic 1,3,2-oxazarsolidin-5-one (XII).

A3.01 cells = assay: Cell number and cell viability in the HIVIIIB assay; assay type: cell-based, human
Protocol: FIG. 33. […] Cells were washed and incubated in complete medium at 5% CO2 and 37° C. for up to 10 days. […] B Concentration dependence of GSAO. […] Cells were washed, incubated in complete medium at 5% CO2 and 37° C. for 3 days and the conditioned medium collected and assayed for p24 antigen.
FIG. 34. Inhibition of HIVIIIB infection of A3.01 cells by GSAO.
A3.01 human T cells were exposed to GSAO for 30 minutes and then to HTLVIIIB virus for 2 hours after which the cells were washed and then cultured for up to 10 days. HTLVIIIB and A3.01 cells were obtained from the NIH AIDS Research and Reference Reagent Program, Rockville, Mass. Virus stocks were made and infectivity titer determined using A3.01 cells and the p24 antigen assay (Coulter, Miami, Fla.). A3.01 cells were cultured in RPMI medium containing 10% fetal calf serum. […] Cell numbers and cell viability were determined at the times specified by staining cells with trypan blue and counting using a Neubauer haemacytometer. Cell viability was measured as a percentage of live cells to total cells.

T1 sequence (P10599 whole entry, the tested form may be a part): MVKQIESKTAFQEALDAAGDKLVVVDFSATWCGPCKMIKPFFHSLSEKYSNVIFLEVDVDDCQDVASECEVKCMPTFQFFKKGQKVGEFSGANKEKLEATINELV

SMILES	IC50 for reduction of the number of granulocyte/macrophage colonies (Human bone marrow cells)	Viability IC50 (BxPc3)	Viability IC50 (HT1080)	inhibition of thioredoxin activity (Thioredoxin)	stability of solutions towards oxidation [1]	effect on cell proliferation (A3.01 cells; 10 μM in the culture medium)	effect on cell viability (A3.01 cells; 10 μM in the culture medium)	effect on cell proliferation or cell viability (A3.01 cells; up to 100 μM, pre-incubation only)
N[C@@H](CCC(=O)N[C@@H](CSCC(=O)Nc1ccc([As](=O)(O)O)cc1)C(=O)NCC(=O)O)C(=O)O [GSAA, 4-(N-(S-glutathionylacetyl)amino)phenylarsonic acid, reference compound]	no effect on colony numbers	no significant effect	no significant effect					
NC(CCC(=O)NC(CSCC(=O)Nc1ccc([As]=O)cc1)C(=O)NCC(=O)O)C(=O)O (centres unmarked) [GSAO, 4-(N-(S-glutathionylacetyl)amino)-phenylarsenoxide]				completely inhibited	deactivated over time by oxidation	small inhibitory effect on cell proliferation	no effect on cell viability	no effect on cell proliferation or cell viability
